Experimental data taken from EP0388528B1, “Carboximidamide derivatives” (KIRIN BEER KABUSHIKI KAISHA, priority 1988, dated 1990).
pIC50: −log10 of the molar value.

Test system: isolated rat aortae
Experiment: Vasorelaxing effect on the isolated rat aortae (Referential Example 1)-1)
Conditions: inhibition of contraction induced by 40 mM KCl
Protocol: The compounds of the present invention were tested for their physiological activities by measuring the tension of isolated rat aortae isometrically.
Thoracic aortae obtained from male Wistar rats (weighing 250-350 g) were cut into ring segments about 3 mm long. The ring preparation was placed in an organ bath filled with 10 ml of Krebs-Ringer solution that was maintained at 37°C and gassed with 95% O₂ - 5% CO₂.
The preparation in the organ bath was allowed to equilibrate under resting tension of 1 g. After equilibration period, the solution in the organ bath was replaced with an isotonic solution containing 40 mM KCl to contract the preparation.
After the contraction induced by KCl had reached plateau, the concentration-response relationship for the test compound was determined by means of cumulative addition.
The relaxation response of the test compounds was expressed as the percent inhibition of the contraction induced by KCl, and the IC₅₀ value, which is a concentration required for inhibiting the contraction induced by KCl to an extent of 50%, was calculated by the Probit method from the concentration-response curve.

Question: How did the pIC50 turn out when `CC(C)(C)CN=C(NC#N)c1ccccn1` [(2), N-cyano-N'-(2,2-dimethylpropyl)-2-pyridinecarboximidamide] was run?
Answer: Its pIC50 is 4.22.

Question: `CC(N=C(NC#N)c1ccccn1)C(C)(C)C` (stereo not drawn) [(3), N-cyano-N'-(1,2,2-trimethylpropyl)-2-pyridinecarboximidamide] was tested. Which pIC50 did it give?
Answer: Its pIC50 is 4.31.

Question: With `N#CNC(=Nc1ccccc1)c1ccccn1` [(4), N-cyano-N'-phenyl-2-pyridinecarboximidamide] as the compound, how does the pIC50 read?
Answer: Its pIC50 is 4.51.

Question: With `COc1ccc(N=C(NC#N)c2ccccn2)cc1` [(5), N-cyano-N'-(4-methoxyphenyl)-2-pyridinecarboximidamide] as the compound, how does the pIC50 read?
Answer: Its pIC50 is 4.19.

Question: With `Cc1ccc(CN=C(NC#N)c2ccccn2)cc1` [(6), N-cyano-N'-(4-methylbenzyl)-2-pyridinecarboximidamide] as the compound, how does the pIC50 read?
Answer: The pIC50 was 4.29.

Question: With `N#CNC(=NCc1ccc(Cl)cc1)c1ccccn1` [(7), N-cyano-N'-(4-chlorobenzyl)-2-pyridinecarboximidamide] as the compound, how does the pIC50 read?
Answer: Its pIC50 is 4.64.

Question: How did the pIC50 turn out when `N#CNC(=NCc1ccc(C(F)(F)F)cc1)c1ccccn1` [(8), N-cyano-N'-[4-(trifluoromethyl)benzyl]-2-pyridinecarboximidamide] was run?
Answer: Its pIC50 is 4.24.

Question: `Cc1ccc(CCN=C(NC#N)c2ccccn2)cc1` [(9), N-cyano-N'-[2-(4-methylphenyl)ethyl]-2-pyridinecarboximidamide] was tested. Which pIC50 did it give?
Answer: The pIC50 was 4.14.

Question: How did the pIC50 turn out when `N#CNC(=NCCc1ccc(Cl)cc1)c1ccccn1` [(10), N-cyano-N'-[2-(4-chlorophenyl)ethyl]-2-pyridinecarboximidamide] was run?
Answer: The pIC50 was 4.40.

Question: With `CC(N=C(NC#N)c1ccccn1)C(O)c1ccccc1` (stereo not drawn) [(11), N-cyano-N'-(2-hydroxy-1-methyl-2-phenylethyl)-2-pyridinecarboximidamide] as the compound, how does the pIC50 read?
Answer: The pIC50 was 4.92.

Question: With `N#CNC(=NCc1cccs1)c1ccccn1` [(12), N-cyano-N'-(2-thienylmethyl)-2-pyridinecarboximidamide] as the compound, how does the pIC50 read?
Answer: The pIC50 was 4.62.

Question: `N#CNC(=NCCCO[N+](=O)[O-])c1cccnc1` [(14), N-cyano-N'-(3-nitroxypropyl)-3-pyridinecarboximidamide] was tested. Which pIC50 did it give?
Answer: The pIC50 was 4.70.

Question: With `CC(C)(C)CCN=C(NC#N)c1cccnc1` [(15), N-cyano-N'-(3,3-dimethylbutyl)-3-pyridinecarboximidamide] as the compound, how does the pIC50 read?
Answer: The pIC50 was 4.02.

Question: `Cc1ccc(N=C(NC#N)c2cccnc2)cc1` [(16), N-cyano-N'-(4-methylphenyl)-3-pyridinecarboximidamide] was tested. Which pIC50 did it give?
Answer: The pIC50 was 4.77.

Question: `Cc1ccc(CN=C(NC#N)c2cccnc2)cc1` [(18), N-cyano-N'-(4-methylbenzyl)-3-pyridinecarboximidamide] was tested. Which pIC50 did it give?
Answer: Its pIC50 is 4.66.

Question: `COc1ccc(CN=C(NC#N)c2cccnc2)cc1` [(19), N-cyano-N'-(4-methoxybenzyl)-3-pyridinecarboximidamide] was tested. Which pIC50 did it give?
Answer: The pIC50 was 4.43.

Question: How did the pIC50 turn out when `N#CNC(=NCc1ccc(C(F)(F)F)cc1)c1cccnc1` [(21), N-cyano-N'-[4-(trifluoromethyl)benzyl]-3-pyridinecarboximidamide] was run?
Answer: The pIC50 was 4.15.

Question: With `N#CNC(=NCc1ccc(Cl)cc1)c1cccnc1` [(22), N-cyano-N'-(4-chlorobenzyl)-3-pyridinecarboximidamide] as the compound, how does the pIC50 read?
Answer: The pIC50 was 4.66.

Question: With `N#CNC(=NCc1ccc([N+](=O)[O-])cc1)c1cccnc1` [(23), N-cyano-N'-(4-nitrobenzyl)-3-pyridinecarboximidamide] as the compound, how does the pIC50 read?
Answer: The pIC50 was 4.01.

Question: How did the pIC50 turn out when `N#CNC(=NCc1ccc(Cl)c(Cl)c1)c1cccnc1` [(24), N-cyano-N'-(3,4-dichlorobenzyl)-3-pyridinecarboximidamide] was run?
Answer: Its pIC50 is 4.68.

Question: How did the pIC50 turn out when `N#CNC(=NCc1cc(C(F)(F)F)cc(C(F)(F)F)c1)c1cccnc1` [(25), N-cyano-N'-[3,5-bis(trifluoromethyl)benzyl]-3-pyridinecarboximidamide] was run?
Answer: Its pIC50 is 4.62.

Question: `N#CNC(=NCc1cccc(OCc2ccccc2)c1)c1cccnc1` [(26), N-cyano-N'-(3-benzyloxybenzyl)-3-pyridinecarboximidamide] was tested. Which pIC50 did it give?
Answer: The pIC50 was 4.64.

Question: `COc1ccccc1CCN=C(NC#N)c1cccnc1` [(28), N-cyano-N'-[2-(2-methoxyphenyl)ethyl]-3-pyridinecarboximidamide] was tested. Which pIC50 did it give?
Answer: The pIC50 was 4.15.

Question: How did the pIC50 turn out when `N#CNC(=NCCc1ccc(Cl)cc1)c1cccnc1` [(30), N-cyano-N'-[2-(4-chlorophenyl)ethyl]-3-pyridinecarboximidamide] was run?
Answer: The pIC50 was 4.37.

Question: How did the pIC50 turn out when `N#CNC(=NCCc1ccc(NCc2ccccc2)cc1)c1cccnc1` [(31), N-cyano-N'-[2-(4-benzylaminophenyl)ethyl]-3-pyridinecarboximidamide] was run?
Answer: Its pIC50 is 4.80.

Question: `N#CNC(=NCC(O[N+](=O)[O-])c1ccc([N+](=O)[O-])cc1)c1cccnc1` (stereo not drawn) [(32), N-cyano-N'-[2-(4-nitrophenyl)-2-nitroxyethyl]-3-pyridinecarboximidamide] was tested. Which pIC50 did it give?
Answer: Its pIC50 is 4.11.

Question: With `N#CNC(=NCCCc1ccccc1)c1cccnc1` [(33), N-cyano-N'-(3-phenylpropyl)-3-pyridinecarboximidamide] as the compound, how does the pIC50 read?
Answer: Its pIC50 is 4.02.

Question: How did the pIC50 turn out when `N#CNC(=NC(c1ccccc1)c1ccccc1)c1cccnc1` [(34), N-cyano-N'-diphenylmethyl-3-pyridinecarboximidamide] was run?
Answer: Its pIC50 is 4.42.

Question: `N#CNC(=NC(Cc1ccccc1)c1ccccc1)c1cccnc1` (stereo not drawn) [(35), N-cyano-N'-(1,2-diphenylethyl)-3-pyridinecarboximidamide] was tested. Which pIC50 did it give?
Answer: The pIC50 was 4.74.

Question: How did the pIC50 turn out when `N#CNC(=NCC(c1ccccc1)c1ccccc1)c1cccnc1` [(36), N-cyano-N'-(2,2-diphenylethyl)-3-pyridinecarboximidamide] was run?
Answer: Its pIC50 is 4.80.

Question: How did the pIC50 turn out when `N#CNC(=NCCC(c1ccccc1)c1ccccc1)c1cccnc1` [(37), N-cyano-N'-(3,3-diphenylpropyl)-3-pyridinecarboximidamide] was run?
Answer: The pIC50 was 4.55.

Question: How did the pIC50 turn out when `N#CNC(=NCCc1ccc(OCc2ccccc2)c(OCc2ccccc2)c1)c1cccnc1` [(39), N-cyano-N'-[2-(3,4-dibenzyloxyphenyl)ethyl]-3-pyridinecarboximidamide] was run?
Answer: Its pIC50 is 4.32.

Question: `COc1ccc(NC(=NC#N)c2cccnc2)c(OC)n1` [(40), N-cyano-N'-3-(2,6-dimethoxypyridine)-3-pyridinecarboximidamide] was tested. Which pIC50 did it give?
Answer: The pIC50 was 4.40.

Question: With `N#CNC(=NCCCO[N+](=O)[O-])c1ccncc1` [(42), N-cyano-N'-(3-nitroxypropyl)-4-pyridinecarboximidamide] as the compound, how does the pIC50 read?
Answer: Its pIC50 is 4.70.

Question: With `N#CNC(=Nc1ccccc1)c1ccncc1` [(43), N-cyano-N'-phenyl-4-pyridinecarboximidamide] as the compound, how does the pIC50 read?
Answer: The pIC50 was 4.28.

Question: How did the pIC50 turn out when `N#CNC(=NCc1ccc(Cl)c(Cl)c1)c1ccncc1` [(44), N-cyano-N'-(3,4-dichlorobenzyl)-4-pyridinecarboximidamide] was run?
Answer: Its pIC50 is 4.72.

Question: `CSc1ccc(CN=C(NC#N)c2ccncc2)cc1` [(45), N-cyano-N'-(4-methylthiobenzyl)-4-pyridinecarboximidamide] was tested. Which pIC50 did it give?
Answer: The pIC50 was 4.31.

Question: With `N#CNC(=NCc1cccc(OCc2ccccc2)c1)c1ccncc1` [(46), N-cyano-N'-(3-benzyloxybenzyl)-4-pyridinecarboximidamide] as the compound, how does the pIC50 read?
Answer: Its pIC50 is 4.52.

Question: How did the pIC50 turn out when `N#CNC(=NCCc1ccc(Cl)cc1)c1ccncc1` [(47), N-cyano-N'-[2-(4-chlorophenyl)ethyl]-4-pyridinecarboximidamide] was run?
Answer: The pIC50 was 4.40.

Question: How did the pIC50 turn out when `COc1ccccc1CCN=C(NC#N)c1ccncc1` [(48), N-cyano-N'-[2-(2-methoxyphenyl)ethyl]-4-pyridinecarboximidamide] was run?
Answer: Its pIC50 is 4.14.

Question: With `N#CNC(=NCCSc1ccccc1)c1ccncc1` [(49), N-cyano-N'-(2-phenylthioethyl)-4-pyridinecarboximidamide] as the compound, how does the pIC50 read?
Answer: The pIC50 was 4.21.

Question: `N#CNC(=NCC(O[N+](=O)[O-])c1ccc([N+](=O)[O-])cc1)c1ccncc1` (stereo not drawn) [(50), N-cyano-N'-[2-(4-nitrophenyl)-2-nitroxyethyl]-4-pyridinecarboximidamide] was tested. Which pIC50 did it give?
Answer: Its pIC50 is 4.85.
